In patent US12227577B2, “Combination of a PD-1 antagonist, an ATR inhibitor and a platinating agent for the treatment of cancer” (Merck Patent GMBH, priority 2018, dated 2025):
“And” between values parts separate entries of the source, which are not always exact repeats. Equal values may be shown once.

How the values were obtained:
[1] = system: MC38 colorectal cancer syngeneic model; assay: Experiment 2A: triple combination of Avelumab, Cisplatin and ATRi 1 in subcutaneous MC38 model; type: in vivo, C57BL/6 mice; details: Exp. 2A; for Tumor-free mice on day 66: 10 mice per group; for Median survival: Kaplan-Meier, survival data up to day 66, euthanized at tumor burden of 3,000 mm^3; for TGI % (%) / T/C (%) / anti-tumor activity: day 17; for T/C (%): treated vs control group mean volume; for anti-tumor activity: in words
Excerpt: The objective of this study was to evaluate the in vivo anti-tumor efficacy of a triple combination treatment comprising avelumab, a platinating agent (cisplatin or carboplatin) and ATRi 1 (Compound 1) in the subcutaneous MC38 colorectal cancer syngeneic model in C57BL/6 mice.
The tumor cells were routinely subcultured twice weekly by trypsin-EDTA treatment.
Treatments were started on day 7 after tumor inoculation when the average tumor size reached approximately 80 mm^3. […] Each group consisted of 10 tumor-bearing mice.
(§1) The major endpoint was to see if the tumor growth could be delayed or mice could be cured. Tumor size was measured twice weekly in two dimensions using a caliper, and the volume was expressed in mm^3 using the formula: V=0.5 a×b^2 where a and b are the long and short diameters of the tumor, respectively. The tumor size was then used for calculation of T/C values. The T/C value (in percent) is an indication of antitumor effectiveness; T and C are the mean volumes of the treated and control groups, respectively, on a given day. TGI was calculated for each group using the formula: TGI (%)=[1−(Ti−T0)/(Vi−V0)]×100; Ti is the average tumor volume of a treatment group on a given day, TO is the average tumor volume of the treatment group on the day of treatment start, Vi is the average tumor volume of the vehicle control group on the same day with Ti, and V0 is the average tumor volume of the vehicle group on the day of treatment start. Animals were euthanized as they reached tumor burden of 3,000 mm^3 per IACUC regulations and the time to reach this endpoint was used for Kaplan-Meier survival analysis.
Statistical analysis of difference in the tumor volume among the groups were conducted on the data obtained at the best therapeutic time point on day 17 after the start of treatment). A one-way ANOVA was performed, and when a significant F-statistics (a ratio of treatment variance to the error variance) was obtained, comparisons between groups were carried out with Games-Howell test. All data were analyzed using SPSS 17.0. p<0.05 was considered to be statistically significant.
(§2) Statistical analysis of difference in survival rate among the groups were conducted on the survival data up to day 66 after the start of treatment. Kaplan-Meier test was performed, all data were analyzed using GraphPad Prism 6.0., comparisons between groups were carried out with Log-rank test, p<0.05 was considered to be statistically significant.
The anti-tumor efficacy of the triple combination avelumab, cisplatin and ATRi 1 was tested according to the above methods and with the experimental design outlined in Table 2.

[2] = system: MC38 colorectal cancer syngeneic model; assay: Experiment 2B: triple combination of Avelumab, Carboplatin and ATRi 1 in subcutaneous MC38 model; type: in vivo, C57BL/6 mice; details: Exp. 2B; for Tumor-free mice on day 66: 10 mice per group; for Median survival: Kaplan-Meier, survival data up to day 66, euthanized at tumor burden of 3,000 mm^3; for TGI % (%) / T/C (%) / anti-tumor activity: day 17; for T/C (%): treated vs control group mean volume; for anti-tumor activity: in words; for Tumor Size (mm^3) at day 17: day 17 after start of treatment, Mean ± SEM, Avelumab 400 μg i.v. days 3, 6, 9, Carboplatin 60 mg/kg i.p., ATRi 1 60 mg/kg p.o. days 0, 7
Method: The MC38 tumor cells were maintained in vitro as a monolayer culture in DMEM+2 mM glutamine supplemented with 10% heat inactivated fetal bovine serum, 100 U/ml penicillin and 100 μg/ml streptomycin at 37° C. in an atmosphere of 5% CO2 in air. The tumor cells were routinely subcultured twice weekly by trypsin-EDTA treatment. The cells growing in an exponential growth phase were harvested and counted for tumor inoculation.
Each mouse was inoculated subcutaneously at the right upper flank with MC38 cells (3×10^5) in 0.1 mL of PBS for tumor development. Treatments were started on day 7 after tumor inoculation when the average tumor size reached approximately 80 mm^3. The animals were assigned into groups using an Excel-based randomization software performing stratified randomization based upon their tumor volumes. Each group consisted of 10 tumor-bearing mice. The tested compounds were administered to the mice according to the predetermined regimen shown in the experimental design Table 2 and Table 6, respectively.
as §1
A one-way ANOVA was performed, and when a significant F-statistics (a ratio of treatment variance to the error variance) was obtained, comparisons between groups were carried out with Games-Howell test. All data were analyzed using SPSS 17.0. p<0.05 was considered to be statistically significant.
as §2
The anti-tumor efficacy of the triple combination avelumab, carboplatin and ATRi 1 was tested according to the above methods and with the experimental design outlined in Table 6.

[3] = system: MB49 syngeneic tumor model; assay: Triple combination treatment in murine subcutaneous MB49 tumor model; type: in vivo, C57BL/6 female mice; details: for Median survival: Kaplan-Meier, sacrificed when tumor volume reached 2000 mm^3; for Tumor Size (mm^3) at day 18: day 18, Mean ± SEM, Avelumab 400 μg i.v. days 3, 6, 9, Carboplatin 60 mg/kg i.p., ATRi 1 60 mg/kg p.o. days 0, 7; for TGI % (%): day 18 after start of treatment, vs control group; for tumor growth inhibition effect: in words, compared to the control group
Method: C57BL/6 female mice at 8-9 weeks of age where subcutaneously injected into the right flank with 0.5×10^6 of viable MB49 tumor cells in 0.1 mL PBS. The animals were randomized and therapy initiated when the tumors reached a volume of around 100 mm^3 (day 0 of treatment). Each group consisted of 10 tumor-bearing mice. The tested compounds were administered to the mice according to the predetermined regimen shown in the experimental design Table 14:
The tumor size was then used for calculation of T/C values.
The body weight was also measured twice a week. Mice were sacrificed when the tumor volume reached 2000 mm^3.
One-way analysis of variance (ANOVA) with Bonferroni's Multiple Comparisons Test, two-way ANOVA, unpaired t-test and Log-rank test from the GraphPad Prism software package were used (Prism 5 for Windows, Version 5.0, GraphPad Software Inc., San Diego, CA). p<0.05 was considered to be statistically significant.

[4] = 10 mg/kg dose; cited from earlier work

Row | Molecule | Tumor-free mice on day 66 [1] | Median survival [1] [days] | TGI % (%) [1] [%] | T/C (%) [1] [%] | anti-tumor activity [1] | Tumor-free mice on day 66 [2] | Median survival [2] [days] | TGI % (%) [2] [%] | T/C (%) [2] [%] | anti-tumor activity [2] | Median survival [3] [days] | Tumor Size (mm^3) at day 18 [3] [mm^3] | TGI % (%) [3] [%] | tumor growth inhibition effect [3] | Tumor Size (mm^3) at day 17 [2] | receptor occupancy [4] | tolerability [4]
1 | CNCc1ccc(-c2cc(-c3nc(-c4ccc(S(=O)(=O)C(C)C)cc4)cnc3N)on2)cc1 [ATRi 1, 3-[3-(4-Methylaminomethyl-phenyl)-isoxazol-5-yl]-5-[4-(propane-2-sulfonyl)-phenyl]-pyrazin-2-ylamine] | 0/10 | 24 | 11.6 | 88.9 | minor anti-tumor activity | 0/10 | 21 | −31.2 | 129.5 | minor anti-tumor activity | 21 | 2087 ± 333 | 7.8 | did not show any significant tumor growth inhibition effect | – | – | –
2 | Avelumab: fully human monoclonal antibody of the immunoglobulin (Ig) G1 isotype; selectively binds to PD-L1 | 0/10 | 26 | 41.8 | 60.2 | minor anti-tumor activity | 0/10 | 31 | 47.8 | 54.9 | minor anti-tumor activity | 22.5 | 1378 ± 175 | 39.1 | moderate tumor growth inhibition effect | 774 mm^3 and 774 ± 153 mm^3 | excellent | well tolerated
3 | N.N.O=C([O-])C1(C(=O)[O-])CCC1.[Pt+2] [Carboplatin, reference compound] | – | – | – | – | – | 0/10 | 28 | 55.5 | 47.6 | minor anti-tumor activity | 21 | 1814 ± 212 | 19.9 | did not show any significant tumor growth inhibition effect | 671 mm^3 and 671 ± 160 mm^3 | – | –
4 | N.N.[Cl][Pt][Cl] [Cisplatin, reference compound] | 0/10 | 28 | 38.7 | 63.1 | minor anti-tumor activity | – | – | – | – | – | – | – | – | – | – | – | –
